Test results as given in PubChem BioAssay AID1745844 (Carcinogenic Potency Database (CPDB), 2022).
Activity calls are given as the source filed them. The rule behind the calls is not given here.

Tested on: rodent lifetime carcinogenesis bioassay, tumor incidence TD50
Test: carcinogenic potency in animals, long-term in vivo studies, CPDB compilation (AID 1745844)
[1] = mouse, strain B6C3F1, females, by gavage, site: lung, lesion: alveolar/bronchiolar adenoma + alveolar/bronchiolar carcinoma, dosed 103 weeks, study length 104 weeks
[2] = rat, strain Fischer 344, females, by gavage, site: liver, lesion: hepatocellular adenoma + hepatocellular carcinoma + neoplastic nodule, dosed 103 weeks, study length 104 weeks

Q: For `[Cl][Hg][Cl]`, which TD50 (mouse, strain B6C3F1, females, by gavage, site: any site (literature study), lesion: several types, types named in the paper, dosed 103 weeks, study length 104 weeks) is on record?
A: Its TD50 is 5.83 mg/kg/day (inactive).

Q: What about the TD50 [1] of the same molecule?
A: Its TD50 is 40.8 mg/kg/day.

Q: What about the TD50 (mouse, strain B6C3F1, males, by gavage, site: kidney, lesion: tubular-cell adenocarcinoma, dosed 103 weeks, study length 104 weeks) of the same molecule?
A: The TD50 was 240 mg/kg/day.

Q: What about the TD50 (mouse, strain B6C3F1, males, by gavage, site: kidney, lesion: tubule adenoma + tubular-cell adenocarcinoma, dosed 103 weeks, study length 104 weeks) of the same molecule?
A: Its TD50 is 81.6 mg/kg/day.

Q: And the TD50 (mouse, strain B6C3F1, males, by gavage, site: kidney, lesion: tubule adenoma, dosed 103 weeks, study length 104 weeks)?
A: Its TD50 is 125 mg/kg/day.

Q: What about the TD50 (mouse, strain Charles River CD1, females, in drinking water, site: all sites, lesion: lymphoma and leukemia, combined, dosed 118 weeks, study length 118 weeks) of the same molecule?
A: Its TD50 is 3.58 mg/kg/day (inactive).

Q: What about the TD50 (mouse, strain Charles River CD1, females, in drinking water, site: any site (literature study), lesion: malignant tumor, dosed 118 weeks, study length 118 weeks) of the same molecule?
A: Its TD50 is 5.55 mg/kg/day (inactive).

Q: And the TD50 (mouse, strain Charles River CD1, females, in drinking water, site: any site (literature study), lesion: several types, types named in the paper, dosed 118 weeks, study length 118 weeks)?
A: The TD50 was 2.42 mg/kg/day (inactive).

Q: What about the carcinogen call (mouse, strain Charles River CD1, females, in drinking water, site: lung, lesion: one or several types, types not named, dosed 118 weeks, study length 118 weeks) of the same molecule?
A: The carcinogen call was “negative (inactive)”.

Q: And the carcinogen call (mouse, strain Charles River CD1, males, in drinking water, site: any site (literature study), lesion: malignant tumor, dosed 119 weeks, study length 119 weeks)?
A: The carcinogen call was “negative (inactive)”.

Q: What about the TD50 (mouse, strain Charles River CD1, males, in drinking water, site: any site (literature study), lesion: several types, types named in the paper, dosed 119 weeks, study length 119 weeks) of the same molecule?
A: The TD50 was 3.2 mg/kg/day (inactive).

Q: And the TD50 (mouse, strain Charles River CD1, males, in drinking water, site: lung, lesion: one or several types, types not named, dosed 119 weeks, study length 119 weeks)?
A: The TD50 was 11.2 mg/kg/day (inactive).

Q: And the TD50 (rat, strain Fischer 344, females, by gavage, site: forestomach, lesion: squamous-cell papilloma, dosed 103 weeks, study length 104 weeks)?
A: Its TD50 is 51.8 mg/kg/day.

Q: And the TD50 [2]?
A: The TD50 was 105 mg/kg/day.

Q: What about the TD50 (rat, strain Fischer 344, males, by gavage, site: adrenal medulla, lesion: pheochromocytoma benign, bilateral + pheochromocytoma, benign, dosed 103 weeks, study length 104 weeks) of the same molecule?
A: Its TD50 is 1.56 mg/kg/day.

Q: And the TD50 (rat, strain Fischer 344, males, by gavage, site: adrenal medulla, lesion: pheochromocytoma benign, bilateral + pheochromocytoma, complex + pheochromocytoma, malignant + pheochromocytoma malignant, bil, dosed 103 weeks, study length 104 weeks)?
A: Its TD50 is 1.6 mg/kg/day.

Q: What about the TD50 (rat, strain Fischer 344, males, by gavage, site: any site (literature study), lesion: several types, types named in the paper, dosed 103 weeks, study length 104 weeks) of the same molecule?
A: The TD50 was 1.04 mg/kg/day.

Q: And the TD50 (rat, strain Fischer 344, males, by gavage, site: forestomach, lesion: squamous-cell papilloma, dosed 103 weeks, study length 104 weeks)?
A: The TD50 was 3.12 mg/kg/day.

Q: What about the TD50 (rat, strain Fischer 344, males, by gavage, site: liver, lesion: hepatocellular adenoma + hepatocellular carcinoma + neoplastic nodule, dosed 103 weeks, study length 104 weeks) of the same molecule?
A: Its TD50 is 10.3 mg/kg/day.

Q: And the TD50 (rat, strain Fischer 344, males, by gavage, site: testis, lesion: interstitial-cell adenoma, bilateral + interstitial-cell adenoma, dosed 103 weeks, study length 104 weeks)?
A: Its TD50 is 0.825 mg/kg/day.

Q: What about the TD50 (rat, strain Fischer 344, males, by gavage, site: thyroid gland, lesion: follicular-cell adenoma + follicular-cell carcinoma, dosed 103 weeks, study length 104 weeks) of the same molecule?
A: Its TD50 is 5.25 mg/kg/day.

Q: And the TD50 (rat, strain Fischer 344, males, by gavage, site: thyroid gland, lesion: follicular-cell adenoma, dosed 103 weeks, study length 104 weeks)?
A: The TD50 was 5.98 mg/kg/day.

Q: And the TD50 (rat, strain Fischer 344, males, by gavage, site: thyroid gland, lesion: follicular-cell carcinoma, dosed 103 weeks, study length 104 weeks)?
A: The TD50 was 7.32 mg/kg/day.

Q: `Cc1ccc(-c2cc(C(F)(F)F)nn2-c2ccc(S(N)(=O)=O)cc2)cc1` was tested. Which carcinogen call (rat, strain Fischer 344, males, in feed, site: colon, lesion: one or several types, types not named, dosed 53 weeks, study length 53 weeks) did it give?
A: Its carcinogen call is “negative (inactive)”.

Q: Which results are given for `O=[N+]([O-])c1ccc(Nc2ccc(Nc3ccccc3)c(S(=O)(=O)O)c2)c([N+](=O)[O-])c1`?
A: TD50 (mouse, strain B6C3F1, females, by gavage, site: liver, lesion: hepatocellular adenoma + hepatocellular carcinoma + neoplastic nodule, dosed 103 weeks, study length 104 weeks): 7550 mg/kg/day; TD50 [1]: 11600 mg/kg/day; TD50 (mouse, strain B6C3F1, females, by gavage, site: lung, lesion: alveolar/bronchiolar adenoma, dosed 103 weeks, study length 104 weeks): 2590 mg/kg/day (inactive); TD50 (mouse, strain B6C3F1, males, by gavage, site: any site (literature study), lesion: several types, types named in the paper, dosed 103 weeks, study length 104 weeks): 372 mg/kg/day; TD50 (mouse, strain B6C3F1, males, by gavage, site: liver, lesion: hepatocellular carcinoma, dosed 103 weeks, study length 104 weeks): 184 mg/kg/day (inactive); TD50 (mouse, strain B6C3F1, males, by gavage, site: lung, lesion: alveolar/bronchiolar adenoma + alveolar/bronchiolar carcinoma, dosed 103 weeks, study length 104 weeks): 5860 mg/kg/day; TD50 (rat, strain Fischer 344, females, by gavage, site: any site (literature study), lesion: several types, types named in the paper, dosed 103 weeks, study length 104 weeks): 361 mg/kg/day; TD50 (rat, strain Fischer 344, females, by gavage, site: kidney, lesion: transitional-cell carcinoma, dosed 103 weeks, study length 104 weeks): 1710 mg/kg/day; TD50 [2]: 5090 mg/kg/day; TD50 (rat, strain Fischer 344, males, by gavage, site: any site (literature study), lesion: several types, types named in the paper, dosed 100 weeks, study length 104 weeks): 270 mg/kg/day (inactive)
